Results taken from patent US9370506B2, “Modulators of aldehyde dehydrogenase and methods of use thereof” (The Board of Trustees of the Leland Stanford Junior …, priority 2008, dated 2016).
Substitutions are numbered along the chain they refer to.

target: T1, E488K ALDH1 mutant recombinant protein (Homo sapiens, UniProt P00352, E488K); assay: High throughput screening against E488K ALDH1 mutant; assay type: biochemical; details: octylaldehyde and phenylacetaldehdye as substrates
T1 sequence (P00352 1-501 E488K): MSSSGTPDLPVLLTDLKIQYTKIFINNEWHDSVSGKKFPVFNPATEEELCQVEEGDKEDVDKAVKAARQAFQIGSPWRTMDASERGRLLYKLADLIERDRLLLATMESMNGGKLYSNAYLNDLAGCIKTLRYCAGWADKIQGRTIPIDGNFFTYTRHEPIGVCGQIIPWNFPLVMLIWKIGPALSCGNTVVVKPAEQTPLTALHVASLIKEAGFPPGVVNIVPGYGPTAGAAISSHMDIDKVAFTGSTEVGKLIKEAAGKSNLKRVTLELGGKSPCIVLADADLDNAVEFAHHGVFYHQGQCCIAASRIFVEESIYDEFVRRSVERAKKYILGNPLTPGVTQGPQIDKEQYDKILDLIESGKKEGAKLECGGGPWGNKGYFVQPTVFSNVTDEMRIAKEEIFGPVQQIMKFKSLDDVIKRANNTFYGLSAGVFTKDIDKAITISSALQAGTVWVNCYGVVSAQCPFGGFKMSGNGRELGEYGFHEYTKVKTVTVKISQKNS
From the text: The screening assays used octylaldehyde (an example of longer chain aliphatic aldehyde) and phenylacetaldehdye (an example of aromatic aldehyde), instead of acetaldehyde.

Question: Which “identified as ALDH1 activator” value does the source give for `C=CCn1c(C(C)NC(=O)c2ccccc2)nc2ccccc21` (centres unmarked) [Alda-81, N-[1-(1-allyl-1H-benzoimidazol-2-yl)-ethyl]-benzamide] here?
Answer: ALDH1 activators

Question: `COc1ccc(C2C(C#N)=C(C)NC3=C2C(=O)CC(c2ccc(Cl)cc2)C3)cc1` (centres unmarked) [Alda-83, 7-(4-chloro-phenyl)-4-(4-methoxy-phenyl)-2-methyl-5-oxo-1,4,5,6,7,8-hexahydro-quinoline-3-carbonitrile] was tested. Which “identified as ALDH1 activator” value did it give?
Answer: ALDH1 activators

target: T2, ALDH2 (Homo sapiens, UniProt P05091, E504K); assay: Screening for ALDH2 agonists (NAD+ to NADH, optionally diaphorase/resazurin-coupled); assay type: biochemical; details: increase of ALDH2 activity; 10 mM acetaldehyde as substrate
T2 sequence (P05091 18-517 E504K): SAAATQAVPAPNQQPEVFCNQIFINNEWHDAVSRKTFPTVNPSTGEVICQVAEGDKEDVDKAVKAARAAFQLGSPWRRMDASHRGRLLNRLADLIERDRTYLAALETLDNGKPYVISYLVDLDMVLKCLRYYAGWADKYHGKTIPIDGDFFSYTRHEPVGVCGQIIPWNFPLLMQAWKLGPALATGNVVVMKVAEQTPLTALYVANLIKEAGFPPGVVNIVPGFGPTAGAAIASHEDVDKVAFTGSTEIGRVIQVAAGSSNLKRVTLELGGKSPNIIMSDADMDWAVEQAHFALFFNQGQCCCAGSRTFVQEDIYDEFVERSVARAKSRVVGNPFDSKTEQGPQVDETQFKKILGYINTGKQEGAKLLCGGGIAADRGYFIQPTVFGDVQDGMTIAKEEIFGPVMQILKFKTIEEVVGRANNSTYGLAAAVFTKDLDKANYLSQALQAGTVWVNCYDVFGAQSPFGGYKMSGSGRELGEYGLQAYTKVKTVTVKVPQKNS
Description: Compounds were screened using a method as depicted schematically in FIG. 4. Essentially, the reaction is carried out at 25° C. in 0.1 NaPPi buffer, pH 9.5, 2.4 mM NAD^+ and 10 mM acetaldehyde as the substrate. Enzymatic activity is measured by a reductive reaction of NAD^+ to NADH at 340 nm. Alternatively, the production of NADH can be coupled with another enzymatic reaction that consumes NADH and that provides for a detectable signal. An example of such an enzymatic reaction is a diaphorase-based reaction, which reduces resazurin to its […] fluorescent compound resorufin.
For example, a 120 μl reaction mixture for ALDH enzymatic activity comprises the following components:
43 μl 150 mM sodium pyrophosphate (NaPPi) buffer, pH 9.0;
15 μl 80 mM acetaldehyde;
1 μl of resazurin (0.2 mg/ml in H2O);
1 μl of diaphorase (1 unit, e.g., from Clostridium kluyveri);
2 μl of variant ALDH2 (e.g., 2 μl of variant ALDH2 at (0.5-2 μg/μl); and
28 μl of a solution comprising an agent to be tested, which agent has been resuspended in an appropriate solvent (e.g., an aqueous solution, DMSO, and the like).
Approximately 65,000 compounds were screened. A number of compounds were identified that increase the activity of ALDH2.

Question: `COc1ccccc1CNc1nccn(-c2ccc3c(c2)OCCO3)c1=O` [Alda-63, 1-(2,3-dihydro-benzo[1,4]dioxin-6-yl)-3-(2-methoxy-benzylamino)-1H-pyrazin-2-one] was tested. Which EC50 did it give?
Answer: 12.4 µM

Question: Which EC50 does the source give for `COc1c(C(=O)NCc2ccc3c(c2)OCO3)ccc2ccccc12` [Alda-52, 1-methoxy-naphthalene-2-carboxylic acid (benzo[1,3]dioxol-5-ylmethyl)-amide] here?
Answer: 3 µM

Question: Which EC50 does the source give for `O=C(C1COc2cc(S(=O)(=O)NCc3ccccc3Cl)ccc2O1)N1CCCCCC1` (centres unmarked) [Alda-64, 2-(azepane-1-carbonyl)-N-(2-chloro-benzyl)-2,3-dihydro-benzo[1,4]dioxine-6-sulfonamide] here?
Answer: 2.2 µM

Question: How did the EC50 turn out when `CCCCC(=O)Nc1cc(-c2ccc(C)cc2)no1` [Alda-57, pentanoic acid (3-p-tolyl-isoxazol-5-yl)-amide] was run?
Answer: 1.4 µM

Question: Which EC50 does the source give for `NC(=O)c1cc(S(=O)(=O)NCc2ccc3c(c2)OCO3)cs1` [Alda-59, 4-[(benzo[1,3]dioxol-5-ylmethyl)-sulfamoyl]-thiophene-2-carboxylic acid amide] here?
Answer: 4.6 µM

Question: How did the EC50 turn out when `Cc1ccc(N2CC(c3nc(-c4cccnc4)no3)CC2=O)cc1Cl` (centres unmarked) [Alda-69, 1-(3-chloro-4-methyl-phenyl)-4-(3-pyridin-3-yl-[1,2,4]oxadiazol-5-yl)-pyrrolidin-2-one] was run?
Answer: 8.9 µM

Question: `COc1cccc(CNc2nccn(-c3ccc(C)c(C)c3)c2=O)c1` [Alda-62, 1-(3,4-dimethyl-phenyl)-3-(3-methoxy-benzylamino)-1H-pyrazin-2-one] was tested. Which EC50 did it give?
Answer: 14.7 µM

Question: For `Cc1ccc(CNS(=O)(=O)c2cc(-c3cc(C)no3)ccc2C)cc1` [Alda-60, 2-methyl-N-(4-methyl-benzyl)-5-(3-methyl-isoxazol-5-yl)-benzene sulfonamide], which EC50 is on record?
Answer: 4.96 µM

Question: `Cc1ccc(CNS(=O)(=O)c2cc(-c3onc(C)c3C)ccc2C)cc1` [Alda-61, 5-(3,4-dimethyl-isoxazol-5-yl)-2-methyl-N-(4-methyl-benzyl)-benzene sulfonamide] was tested. Which EC50 did it give?
Answer: 6.44 µM

Question: With `O=C(Cn1c2ccccc2c2cn[nH]c(=O)c21)NCc1ccc2c(c1)OCO2` [Alda-72, N-benzo[1,3]dioxol-5-ylmethyl-2-(1-oxo-1,2-dihydro-2,3,9-triaza-fluoren-9-yl)-acetamide] as the compound, how does the EC50 read?
Answer: 2.92 µM

Question: Which EC50 does the source give for `Cc1ccc(CNC(=O)C(C)SC2=Nc3ccccc3C3=NC(C(C)C)C(=O)N23)cc1` (centres unmarked) [Alda-66, 2-(2-isopropyl-3-oxo-2,3-dihydro-imidazo[1,2-c]quinazolin-5-ylsulfanyl)-N-(4-methyl-benzyl)-propionamide] here?
Answer: 2.66 µM

Question: `O=C(NCc1ccc2c(c1)OCO2)c1cc(-n2cnnc2)ccc1Cl` [Alda-53, N-benzo[1,3]dioxol-5-ylmethyl-2-chloro-5-[1,2,4]triazol-4-yl-benzamide] was tested. Which EC50 did it give?
Answer: 1.09 µM

Question: `CCn1cnc2c(=O)oc3ccc(S(=O)(=O)NCc4ccc5c(c4)OCO5)cc3c21` [Alda-54, 1-ethyl-4-oxo-1,4-dihydro-chromeno[3,4-d]imidazole-8-sulfonic acid (benzo[1,3]dioxol-5-ylmethyl)-amide] was tested. Which EC50 did it give?
Answer: 1.72 µM

Question: With `Cc1ccc(-n2ncc3c(N(CCO)Cc4ccccc4)ncnc32)cc1Cl` [Alda-67, 2-{benzyl-[1-(3-chloro-4-methyl-phenyl)-1H-pyrazolo[3,4-d]pyrimidin-4-yl]-amino}-ethanol] as the compound, how does the EC50 read?
Answer: 3.42 µM

Question: `Cc1ccc(CNC(=O)Cn2c3ccccc3c3cn[nH]c(=O)c32)cc1` [Alda-71, N-(4-methyl-benzyl)-2-(1-oxo-1,2-dihydro-2,3,9-triaza-fluoren-9-yl)-acetamide] was tested. Which EC50 did it give?
Answer: 16.6 µM

Question: With `Cc1ccc(N2CC(c3nc(-c4ccncc4)no3)CC2=O)cc1F` (centres unmarked) [Alda-70, 1-(3-fluoro-4-methyl-phenyl)-4-(3-pyridin-4-yl-[1,2,4]oxadiazol-5-yl)-pyrrolidin-2-one] as the compound, how does the EC50 read?
Answer: 5.57 µM

Question: `Cc1cc(C)cc(NC(=O)CSC2=Nc3ccccc3C3=NC(C(C)C)C(=O)N23)c1` (centres unmarked) [Alda-65, N-(3,5-dimethyl-phenyl)-2-(2-isopropyl-3-oxo-2,3-dihydro-imidazo[1,2-c]quinazolin-5-ylsulfanyl)-acetamide] was tested. Which EC50 did it give?
Answer: 8.41 µM

Question: `Cc1ccc(-n2cc(-c3ccccc3)c3c(N4CCN(CCO)CC4)ncnc32)cc1Cl` [Alda-73, 2-{4-[7-(3-chloro-4-methyl-phenyl)-5-phenyl-7H-pyrrolo[2,3-d]pyrimidin-4-yl]-piperazin-1-yl}-ethanol] was tested. Which EC50 did it give?
Answer: 3.55 µM

Question: How did the EC50 turn out when `CCOC(=O)c1cc(-c2ccc(C)cc2)n(CCC(=O)N2CCN(c3ccccn3)CC2)c1C` [Alda-56, 2-methyl-1-[3-oxo-3-(4-pyridin-2-yl-piperazin-1-yl)-propyl]-5-p-tolyl-1H-pyrrole-3-carboxylic acid ethyl ester] was run?
Answer: 3.65 µM

target: T3, ALDH2 isozyme (Homo sapiens, UniProt P05091); assay: ALDH2 enzymatic activity, spectrophotometric NAD+ to NADH assay; assay type: biochemical; details: 500 uM & 1000 uM; acetaldehyde as substrate; FIG. 17
T3 construct: made in house; host or cells: BL21 E. coli
T3 sequence (P05091 18-517): T2 sequence (P05091 18-517 E504K) with K487E
Description: Reagents for plant-derived compounds safrole, isosafrole, piperine, sesamin, capsaicin were purchased from Sigma-Aldrich Chemicals and dihydromethysticin was purchased from AvaChem. Scientific. Piperine related compounds, Alda-101 to Alda-112, were synthesized by standard organic chemistry. All testing compounds were dissolved in dimethyl-sulfoxide (DMSO) to obtain a stock solution of 20 mM. Different recombinant ALDH isozymes with a His-epitope tag at the N-terminus were constructed, cloned and expressed in BL21 E. coli host cells according published methods (Chen et al., 2008 Science 321:1493). The bacteria were subjected to 0.5 mM IPTG induction for protein expression at 30° C. Purification of the recombinant proteins by affinity nickel columns were carried out using a standard protocol according to manufacturer's instructions (Novagen, Wis., USA).
ALDH enzymatic activity was determined spectrophotometrically using purified recombinant protein (15 ug) in the reductive reaction of NAD^+ to NADH at λ340 nm (Rex et al., 1985, Alcohol Clin Exp Res 9: 147). All the assays in the presence of absence of a testing compound were carried out at 25° C. in […] pyrophosphate buffer, pH=9.5, 2.4 mM NAD+ and 10 mM acetaldehyde or phenylacetaldehyde as a substrate.

Question: For `C=CCc1ccc2c(c1)OCO2` [safrole, 5-(2-propenyl)-1,3-benzodioxole], which “effect on enzymatic activity of ALDH2 isozyme” value is on record?
Answer: Inhibitory effect

same assay, conditions: 1000 uM; acetaldehyde as substrate; FIG. 18

Question: With `C=CCc1ccc2c(c1)OCO2` [safrole, 5-(2-propenyl)-1,3-benzodioxole] as the compound, how does the “effect on enzymatic activity of ALDH2 isozyme, 15-minute kinetic measurements” value read?
Answer: inhibitory effect
